# Reference: patent publication US10633353B2, “Polymerizable compound, composition, polymer, optically anisotropic body, liquid crystal display element, and organic EL display” (DIC Corporation, priority 2014, dated 2020)
# Test: Preservation stability of the coating liquid
# Assay type: physicochemical
# Settings: coating liquid stored for 2 months shielded from light at 0° C.; appearance and GPC
# Method: The preservation stability of the coating liquid was evaluated on a scale of A to E on the basis of the state of the coating liquid that was stored for 2 months under a condition where the coating liquid was shielded from light at 0° C.
# A: No visual change in the appearance of the coating liquid was confirmed. A GPC analysis of the coating liquid confirmed that the change in the composition of the coating liquid was 1% or less.
# B: No visual change in the appearance of the coating liquid was confirmed. A GPC analysis of the coating liquid confirmed that the change in the composition of the coating liquid was 2% or less.
# C: A visual change in the appearance of the coating liquid was confirmed; a trace amount of insoluble components were confirmed, or a GPC analysis of the coating liquid confirmed that the change in the composition of the coating liquid was 3% or less.
# D: A visual change in the appearance of the coating liquid was confirmed; insoluble components were confirmed. The ratio of the weight of the insoluble components to the total solid content was 5% or less.
# E: A large amount of insoluble components were visually confirmed. The ratio of the weight of the insoluble components to the total solid content was 5% or more.
row,Compound,Preservation stability
1,C=CC(=O)OCCCCOc1ccc(C(=O)OCCc2ccc(OC(=O)c3ccc(OCCCCOC(=O)C=C)cc3)c(/C=N/N(CCCCCC)c3nc4ccc5ccccc5c4s3)c2)cc1 [1-c-40],A (No visual change in the appearance of the coating liquid was confirmed. A GPC analysis of the coating liquid confirmed that the change in the composition of the coating liquid was 1% or less.)
2,C=CC(=O)OCCCOc1ccc(C(=O)OCCc2ccc(CCOC(=O)c3ccc(OCCCOC(=O)C=C)cc3)c(/C=N/N(C(=O)C=C)c3nc(-c4ccc5ccccc5c4)cs3)c2)cc1 [1-c-41],A (No visual change in the appearance of the coating liquid was confirmed. A GPC analysis of the coating liquid confirmed that the change in the composition of the coating liquid was 1% or less.)
3,C=CC(=O)OCCCCCCOc1ccc(OC(=O)C2CCC(C(=O)OCCc3ccc(OC(=O)C4CCC(C(=O)Oc5ccc(OCCCCCCOC(=O)C=C)cc5)CC4)c(/C=N/Nc4cccc5ccccc45)c3)CC2)cc1 (centres unmarked) [1-c-42],B (No visual change in the appearance of the coating liquid was confirmed. A GPC analysis of the coating liquid confirmed that the change in the composition of the coating liquid was 2% or less.)
4,C=CC(=O)OCCCCCCOc1ccc(/C=C/C(=O)Oc2ccc(OC(=O)/C=C/c3ccc(OCCCCCCOC(=O)C=C)cc3)c(/C=N/Nc3nc4ccccc4s3)c2)cc1 [1-c-43],B (No visual change in the appearance of the coating liquid was confirmed. A GPC analysis of the coating liquid confirmed that the change in the composition of the coating liquid was 2% or less.)
5,C=CC(=O)OCCCOc1ccc(/C=C/C(=O)Oc2ccc(OC(=O)/C=C/c3ccc(OCCCOC(=O)C=C)cc3)c(/C=N/Nc3nc4ccccc4s3)c2)cc1 [1-c-44],B (No visual change in the appearance of the coating liquid was confirmed. A GPC analysis of the coating liquid confirmed that the change in the composition of the coating liquid was 2% or less.)
6,C=CC(=O)OCCCCOc1ccc(/C=C/C(=O)Oc2ccc(OC(=O)/C=C/c3ccc(OCCCCOC(=O)C=C)cc3)c(/C=N/Nc3nc4ccccc4s3)c2)cc1 [1-c-45],B (No visual change in the appearance of the coating liquid was confirmed. A GPC analysis of the coating liquid confirmed that the change in the composition of the coating liquid was 2% or less.)
7,C=CC(=O)OCCCOc1ccc(/C=C/C(=O)Oc2ccc(OC(=O)/C=C/c3ccc(OCCCOC(=O)C=C)c(OC)c3)c(/C=N/Nc3nc4ccccc4s3)c2)cc1OC [1-c-46],B (No visual change in the appearance of the coating liquid was confirmed. A GPC analysis of the coating liquid confirmed that the change in the composition of the coating liquid was 2% or less.)
8,C=CC(=O)OCCCOc1ccc(/C=C/C(=O)Oc2ccc(OC(=O)/C=C/c3ccc(OCCCOC(=O)C=C)c(Cl)c3)c(/C=N/Nc3nc4ccccc4s3)c2)cc1Cl [1-c-47],B (No visual change in the appearance of the coating liquid was confirmed. A GPC analysis of the coating liquid confirmed that the change in the composition of the coating liquid was 2% or less.)
9,C=C(C)C(=O)OCCCOc1ccc(/C=C/C(=O)Oc2ccc(OC(=O)/C=C/c3ccc(OCCCOC(=O)C(=C)C)cc3)c(/C=N/Nc3nc4ccccc4s3)c2)cc1 [1-c-48],B (No visual change in the appearance of the coating liquid was confirmed. A GPC analysis of the coating liquid confirmed that the change in the composition of the coating liquid was 2% or less.)
10,C=CC(=O)OCCCOc1ccc(CCC(=O)Oc2ccc(OC(=O)CCc3ccc(OCCCOC(=O)C=C)cc3)c(/C=N/Nc3nc4ccccc4s3)c2)cc1 [1-c-49],A (No visual change in the appearance of the coating liquid was confirmed. A GPC analysis of the coating liquid confirmed that the change in the composition of the coating liquid was 1% or less.)
11,C=CC(=O)OCCCCOc1ccc(CCC(=O)Oc2ccc(OC(=O)CCc3ccc(OCCCCOC(=O)C=C)cc3)c(/C=N/Nc3nc4ccccc4s3)c2)cc1 [1-c-50],A (No visual change in the appearance of the coating liquid was confirmed. A GPC analysis of the coating liquid confirmed that the change in the composition of the coating liquid was 1% or less.)
12,C=CC(=O)OCCCCCCOc1ccc(CCC(=O)Oc2ccc(OC(=O)CCc3ccc(OCCCCCCOC(=O)C=C)cc3)c(/C=N/Nc3nc4ccccc4s3)c2)cc1 [1-c-51],A (No visual change in the appearance of the coating liquid was confirmed. A GPC analysis of the coating liquid confirmed that the change in the composition of the coating liquid was 1% or less.)
13,C=CC(=O)OCCCOc1ccc(CCC(=O)Oc2ccc(OC(=O)CCc3ccc(OCCCOC(=O)C=C)c(OC)c3)c(/C=N/Nc3nc4ccccc4s3)c2)cc1OC [1-c-52],A (No visual change in the appearance of the coating liquid was confirmed. A GPC analysis of the coating liquid confirmed that the change in the composition of the coating liquid was 1% or less.)
14,C=CC(=O)OCCCOc1ccc(C#Cc2ccc(C#Cc3ccc(OCCCOC(=O)C=C)cc3)c(/C=N/Nc3nc4ccccc4s3)c2)cc1 [1-c-67],B (No visual change in the appearance of the coating liquid was confirmed. A GPC analysis of the coating liquid confirmed that the change in the composition of the coating liquid was 2% or less.)
15,C=CC(=O)OCCCCCCOc1ccc(C#Cc2ccc(C#Cc3ccc(OCCCCCCOC(=O)C=C)cc3)c(/C=N/Nc3nc4ccccc4s3)c2)cc1 [1-c-68],B (No visual change in the appearance of the coating liquid was confirmed. A GPC analysis of the coating liquid confirmed that the change in the composition of the coating liquid was 2% or less.)
16,C=CC(=O)OCCCCCCOc1ccc(OCCOc2ccc(OCCOc3ccc(OCCCCCCOC(=O)C=C)cc3)c(/C=N/Nc3nc4ccccc4s3)c2)cc1 [1-c-80],A (No visual change in the appearance of the coating liquid was confirmed. A GPC analysis of the coating liquid confirmed that the change in the composition of the coating liquid was 1% or less.)
17,C=CC(=O)Oc1ccc(C(=O)OCCc2ccc(OC(=O)c3ccc(OC(=O)C=C)cc3)c(/C=N/Nc3nc4ccccc4s3)c2)cc1 [1-cg-36],B (No visual change in the appearance of the coating liquid was confirmed. A GPC analysis of the coating liquid confirmed that the change in the composition of the coating liquid was 2% or less.)
18,C=CC(=O)Oc1ccc(C(=O)OCCc2ccc(CCOC(=O)c3ccc(OC(=O)C=C)cc3)c(/C=N/Nc3nc4ccccc4s3)c2)cc1 [1-cg-37],B (No visual change in the appearance of the coating liquid was confirmed. A GPC analysis of the coating liquid confirmed that the change in the composition of the coating liquid was 2% or less.)
19,C=CC(=O)OCCCCCCOc1ccc(C(=O)Oc2ccc(C(=O)OCCc3ccc(OC(=O)c4ccc(OC(=O)c5ccc(OCCCCCCOC(=O)C=C)cc5)cc4)c(/C=N/Nc4nc5ccccc5s4)c3)cc2)cc1 [1-ch-79],A (No visual change in the appearance of the coating liquid was confirmed. A GPC analysis of the coating liquid confirmed that the change in the composition of the coating liquid was 1% or less.)
20,C=CC(=O)OCCCCOC(=O)/C=C/c1ccc(CCC(=O)Oc2ccc(OC(=O)CCc3ccc(/C=C/C(=O)OCCCCOC(=O)C=C)cc3)c(/C=N/Nc3nc4ccccc4s3)c2)cc1 [1-cj-59],A (No visual change in the appearance of the coating liquid was confirmed. A GPC analysis of the coating liquid confirmed that the change in the composition of the coating liquid was 1% or less.)
21,C=CC(=O)OCCCCCCOC(=O)/C=C/c1ccc(CCC(=O)Oc2ccc(OC(=O)CCc3ccc(/C=C/C(=O)OCCCCCCOC(=O)C=C)cc3)c(/C=N/Nc3nc4ccccc4s3)c2)cc1 [1-cj-60],A (No visual change in the appearance of the coating liquid was confirmed. A GPC analysis of the coating liquid confirmed that the change in the composition of the coating liquid was 1% or less.)
22,C=CC(=O)OCCCOC(=O)/C=C/c1ccc(CCC(=O)Oc2ccc(OC(=O)CCc3ccc(/C=C/C(=O)OCCCOC(=O)C=C)cc3)c(/C=N/Nc3nc4ccccc4s3)c2)cc1 [1-cj-63],A (No visual change in the appearance of the coating liquid was confirmed. A GPC analysis of the coating liquid confirmed that the change in the composition of the coating liquid was 1% or less.)
23,C=CC(=O)OCCCCCCOc1ccc(OC(=O)C2CCC(COc3ccc(OCC4CCC(C(=O)Oc5ccc(OCCCCCCOC(=O)C=C)cc5)CC4)c(/C=N/Nc4nc5ccccc5s4)c3)CC2)cc1 (centres unmarked) [1-cm-88],A (No visual change in the appearance of the coating liquid was confirmed. A GPC analysis of the coating liquid confirmed that the change in the composition of the coating liquid was 1% or less.)
24,C=CC(=O)OCCCOc1ccc(OC(=O)C2CCC(COc3ccc(OCC4CCC(C(=O)Oc5ccc(OCCCOC(=O)C=C)cc5)CC4)c(/C=N/Nc4nc5ccccc5s4)c3)CC2)cc1 (centres unmarked) [1-cm-89],A (No visual change in the appearance of the coating liquid was confirmed. A GPC analysis of the coating liquid confirmed that the change in the composition of the coating liquid was 1% or less.)
25,C=CC(=O)OCCOCCOCCOc1ccc(OC(=O)C2CCC(COc3ccc(OCC4CCC(C(=O)Oc5ccc(OCCOCCOCCOC(=O)C=C)cc5)CC4)c(/C=N/Nc4nc5ccccc5s4)c3)CC2)cc1 (centres unmarked) [1-cm-105],A (No visual change in the appearance of the coating liquid was confirmed. A GPC analysis of the coating liquid confirmed that the change in the composition of the coating liquid was 1% or less.)
26,C=CC(=O)OCCOCCOCCOc1ccc(OC(=O)C2CCC(COc3ccc(OCC4CCC(C(=O)Oc5ccc(OCCOCCOCCOC(=O)C=C)cc5)CC4)c(/C=N/N(CCCCCC)c4nc5ccccc5s4)c3)CC2)cc1 (centres unmarked) [1-cmn-90],A (No visual change in the appearance of the coating liquid was confirmed. A GPC analysis of the coating liquid confirmed that the change in the composition of the coating liquid was 1% or less.)
